This note sets out measurements from PubChem BioAssay (NCI).

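How tested: cells in 96-well plates exposed to compound for 48 hours at five concentrations. TGI: concentration producing complete growth inhibition.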

Some test systems named below: SF-295 CNS; SK-MEL-28 melanoma; MDA-N; SNB-19 CNS; HOP-62 NSCLC; EKVX NSCLC; DU-145 prostate; KM12 colon; UACC-62 melanoma; SN12C renal; NCI-H460 lung; OVCAR-4 ovarian; TK-10 renal; SNB-75 CNS; A498 renal; CAKI-1 renal; HL-60(TB) leukemia.
Holding throughout (assay): growth of human tumour cells (NCI), 48 h

In the case of `CC12c3c4cc(Br)cc3Oc3cc(Br)cc(c31)Oc1cc(Br)cc(c12)O4`, the TGI in the test with SF-295 CNS is > 100 µM; with SK-MEL-28 melanoma, > 100 µM; in the test with MDA-N, > 100 µM; with SNB-19 CNS, > 100 µM; with HOP-62 NSCLC it was > 100 µM; with EKVX NSCLC, 82.6 µM. Besides, the TGI is 49.1 µM in the test with DU-145 prostate; > 100 µM with KM12 colon; > 100 µM in the test with UACC-62 melanoma; 83.4 µM in the test on SN12C renal; > 100 µM with NCI-H460 lung; > 100 µM in the test with OVCAR-4 ovarian. The TGI with TK-10 renal was > 100 µM; in the test on SNB-75 CNS, 31.3 µM.

Regarding `Cc1ccc(S(=O)(=O)Nn2c(S)c(C#N)c(-c3ccc([N+](=O)[O-])cc3)c(C#N)c2=O)cc1`, the TGI in the test on SF-295 CNS is > 100 µM; in the test with SK-MEL-28 melanoma, > 100 µM; in the test with MDA-N, 73.1 µM; in the test on HOP-62 NSCLC, > 100 µM; in the test with A498 renal, > 100 µM; in the test with EKVX NSCLC, > 100 µM. Further, the TGI was > 100 µM in the test on KM12 colon; 98.2 µM in the test with UACC-62 melanoma; 37.3 µM in the test on SN12C renal; > 100 µM with NCI-H460 lung; > 100 µM in the test on OVCAR-4 ovarian; > 100 µM with TK-10 renal. In addition, the TGI in the test on SNB-75 CNS and in the test with CAKI-1 renal was > 100 µM each time.

As for `CC(=O)N1N(c2ccc([N+](=O)[O-])cc2)C(=O)C1(C)C`, the TGI in the test with SF-295 CNS was > 100 µM; in the test on SK-MEL-28 melanoma it was 37.4 µM; with MDA-N, > 100 µM; with SNB-19 CNS, > 100 µM; with HOP-62 NSCLC, 40.4 µM; in the test on A498 renal, > 100 µM. In addition, the TGI with EKVX NSCLC was 34.5 µM; in the test with DU-145 prostate, > 100 µM; in the test on KM12 colon, 35.4 µM; in the test on UACC-62 melanoma, 42.3 µM; in the test with SN12C renal it was 32.5 µM; with NCI-H460 lung, > 100 µM. Moreover, the TGI in the test with OVCAR-4 ovarian amounted to 35 µM; with TK-10 renal, 36.2 µM; in the test on SNB-75 CNS, 37.7 µM.

`O=C(Cc1ccccc1)NCCCN(CCCCN(CCCNC(=O)Cc1ccccc1)C(=O)OCc1ccccc1)C(=O)OCc1ccccc1`: the TGI in the test on SF-295 CNS, with SK-MEL-28 melanoma, in the test on MDA-N, in the test on HOP-62 NSCLC, in the test on A498 renal and in the test on EKVX NSCLC was > 100 µM in each case. In addition, the TGI was > 100 µM in the test on DU-145 prostate; > 100 µM in the test with KM12 colon; > 100 µM in the test on UACC-62 melanoma; > 100 µM in the test with SN12C renal; > 100 µM with NCI-H460 lung; > 28.6 µM in the test on OVCAR-4 ovarian. The TGI in the test with TK-10 renal is > 100 µM.

`CC(C)C/C=C/C1=NN(c2cccc(S(=O)(=O)O)c2)C2(C1)SCC(=O)N2c1nc2ccccc2s1` (centres undefined): the TGI was 82 µM in the test with HL-60(TB) leukemia; > 100 µM with SK-MEL-28 melanoma; > 100 µM in the test on SNB-19 CNS; 88.2 µM with A498 renal; > 100 µM in the test on EKVX NSCLC; > 100 µM in the test on DU-145 prostate. Moreover, the TGI in the test with KM12 colon, in the test on UACC-62 melanoma, with SN12C renal, with NCI-H460 lung, in the test on OVCAR-4 ovarian and with TK-10 renal was > 100 µM throughout. Moreover, the TGI with SNB-75 CNS and in the test with CAKI-1 renal was > 100 µM throughout.

Take `CN(C)CCn1c(=O)c2ccc3c4c(nn3CCN(C)C)c3cc(O)ccc3n(c1=O)c24`: the TGI was determined as 1.96 µM in the test on HL-60(TB) leukemia; 0.271 µM with SF-295 CNS; 1.58 µM in the test with SK-MEL-28 melanoma; 0.603 µM in the test with MDA-N; 1 µM with SNB-19 CNS; 0.566 µM in the test on HOP-62 NSCLC. The TGI in the test with A498 renal was determined as 0.83 µM; in the test with EKVX NSCLC, 0.366 µM; in the test with KM12 colon it was 3.5 µM; in the test with UACC-62 melanoma it was 0.585 µM; with SN12C renal it was 0.842 µM; in the test with NCI-H460 lung, 0.254 µM. The TGI amounted to 0.392 µM in the test on OVCAR-4 ovarian, 0.837 µM with TK-10 renal, 1.42 µM in the test on SNB-75 CNS and 0.291 µM in the test on CAKI-1 renal.

Turning to `NC(CCC(=O)O)(CCC(=O)O)CCC(=O)O`, the TGI with SF-295 CNS, in the test on MDA-N, in the test on SNB-19 CNS, with EKVX NSCLC, in the test with DU-145 prostate and in the test with KM12 colon was > 100 µM in each case. Besides, the TGI in the test on UACC-62 melanoma, in the test with SN12C renal, in the test on NCI-H460 lung, in the test on TK-10 renal, in the test with SNB-75 CNS and in the test on CAKI-1 renal was > 100 µM in each case.

As to `O=C1CC(C(=O)N2CCCCC2)n2c(=O)n(-c3ccccc3)c(=O)n2C1` (centres undefined), the TGI in the test with SF-295 CNS, in the test on MDA-N, in the test with SNB-19 CNS, with HOP-62 NSCLC, in the test with EKVX NSCLC and with DU-145 prostate was > 100 µM each time. Also, the TGI with KM12 colon, with UACC-62 melanoma, in the test with NCI-H460 lung, with TK-10 renal, with SNB-75 CNS and in the test on CAKI-1 renal was > 100 µM each time.

Consider `O=c1oc(-c2ccccc2)c(-c2ccccc2)n1-c1ccc(Br)cc1`, for which the TGI with HL-60(TB) leukemia, in the test with SF-295 CNS, in the test with SK-MEL-28 melanoma, in the test on SNB-19 CNS, in the test on HOP-62 NSCLC and in the test with A498 renal was > 100 µM throughout. The TGI is > 100 µM with EKVX NSCLC; 89.4 µM with DU-145 prostate; > 100 µM in the test on KM12 colon; > 100 µM in the test with UACC-62 melanoma; > 100 µM in the test on SN12C renal; > 100 µM in the test with NCI-H460 lung. Besides, the TGI was 96.4 µM in the test with OVCAR-4 ovarian, > 100 µM with TK-10 renal, 32.2 µM with SNB-75 CNS and > 100 µM in the test on CAKI-1 renal.

Turning to `COc1ccc(-c2cc(=O)c3cc4c(cc3[nH]2)OCO4)cc1`, the TGI with HL-60(TB) leukemia, in the test with SF-295 CNS, in the test on SK-MEL-28 melanoma, in the test with SNB-19 CNS, in the test with HOP-62 NSCLC and in the test with A498 renal was > 100 µM in each case. Besides, the TGI was 41.3 µM in the test with EKVX NSCLC; > 100 µM with UACC-62 melanoma; > 100 µM in the test on SN12C renal; > 100 µM with NCI-H460 lung; > 100 µM with OVCAR-4 ovarian; > 100 µM in the test with TK-10 renal. Also, the TGI with SNB-75 CNS is > 100 µM.
